Source: PubChem BioAssay AID2060508 (Molecular Pharmacology Branch, DTP, NCI, 2025)

System: 454973-116-R2-J3-PDC spheroids, viability, % test/control
Experiment: Anticancer human tumor 454973-116-R2-J3-PDC patient-derived pancreatic carcinoma cell line growth inhibition [GQUAD]
Conditions: spheroids with HUVEC and MSC; for IC50: curve of first compound; for viability, T/C: stronger effect = lower value
Outline: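 Multi-cell-type spheroids of tumor cells with HUVEC and mesenchymal stem cells, treated with drug combinations. Concentrations descend in half-log steps from near clinical Cmax, or from 10 microM where Cmax is unknown; viability read-out.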

[1] = second compound 0.0316 µM, first compound 0.0316 µM
[2] = second compound 0.0316 µM, first compound 0.1 µM
[3] = second compound 0.0316 µM, first compound 0.316 µM
[4] = second compound 0.0316 µM, first compound 1 µM
[5] = second compound 0.0316 µM, first compound 3.16 µM
[6] = second compound 0.0316 µM, first compound 10 µM
[7] = second compound 0.1 µM, first compound 0.0316 µM
[8] = second compound 0.1 µM, first compound 0.1 µM
[9] = second compound 0.1 µM, first compound 0.316 µM
[10] = second compound 0.1 µM, first compound 1 µM
[11] = second compound 0.1 µM, first compound 3.16 µM
[12] = second compound 0.1 µM, first compound 10 µM
[13] = second compound 0.316 µM, first compound 0.0316 µM
[14] = second compound 0.316 µM, first compound 0.1 µM
[15] = second compound 0.316 µM, first compound 0.316 µM
[16] = second compound 0.316 µM, first compound 1 µM
[17] = second compound 0.316 µM, first compound 3.16 µM
[18] = second compound 0.316 µM, first compound 10 µM
[19] = second compound 1 µM, first compound 0.0316 µM
[20] = second compound 1 µM, first compound 0.1 µM
[21] = second compound 1 µM, first compound 0.316 µM
[22] = second compound 1 µM, first compound 1 µM
[23] = second compound 1 µM, first compound 3.16 µM
[24] = second compound 1 µM, first compound 10 µM
[25] = second compound 3.16 µM, first compound 0.0316 µM
[26] = second compound 3.16 µM, first compound 0.1 µM
[27] = second compound 3.16 µM, first compound 0.316 µM
[28] = second compound 3.16 µM, first compound 1 µM
[29] = second compound 3.16 µM, first compound 3.16 µM
[30] = second compound 3.16 µM, first compound 10 µM
[31] = second compound 10 µM, first compound 0.0316 µM
[32] = second compound 10 µM, first compound 0.1 µM
[33] = second compound 10 µM, first compound 0.316 µM
[34] = second compound 10 µM, first compound 1 µM
[35] = second compound 10 µM, first compound 3.16 µM
[36] = second compound 10 µM, first compound 10 µM
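Note: spheroids exposed to compounds for seven days.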
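Throughout, for viability, T/C: 100% = DMSO vehicle control viability.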

How did the IC50 (second compound 0.0316 µM) turn out when `CC1COCCN1c1cc(C2(S(C)(=N)=O)CC2)nc(-c2ccnc3[nH]ccc23)n1` (centres undefined) + Cc1[nH]c2ccc(F)cc2c1-c1nc2c3cccnc3c3ncccc3c2[nH]1 was run?
The IC50 was 5.87 µM.

What about the IC50 (second compound 0.1 µM) of the same compound?
Its IC50 is 5.36 µM.

What about the IC50 (second compound 0.316 µM) of the same compound?
The IC50 was 5.07 µM.

And the IC50 (second compound 1 µM)?
Its IC50 is 6.49 µM.

What about the IC50 (second compound 3.16 µM) of the same compound?
Its IC50 is 4.68 µM.

What about the IC50 (second compound 10 µM) of the same compound?
The IC50 was 3.49 µM.

What about the viability, T/C [1] of the same compound?
The viability, T/C was 101%.

And the viability, T/C [2]?
The viability, T/C was 102%.

And the viability, T/C [3]?
The viability, T/C was 121%.

And the viability, T/C [4]?
The viability, T/C was 96.5%.

And the viability, T/C [5]?
Its viability, T/C is 76%.

What about the viability, T/C [6] of the same compound?
Its viability, T/C is 28.1%.

And the viability, T/C [7]?
The viability, T/C was 106%.

What about the viability, T/C [8] of the same compound?
The viability, T/C was 96.9%.

And the viability, T/C [9]?
Its viability, T/C is 110%.

What about the viability, T/C [10] of the same compound?
Its viability, T/C is 107%.

And the viability, T/C [11]?
Its viability, T/C is 68.7%.

What about the viability, T/C [12] of the same compound?
The viability, T/C was 27.9%.

And the viability, T/C [13]?
The viability, T/C was 99.7%.

What about the viability, T/C [14] of the same compound?
The viability, T/C was 110%.

And the viability, T/C [15]?
The viability, T/C was 110%.

What about the viability, T/C [16] of the same compound?
The viability, T/C was 103%.

And the viability, T/C [17]?
Its viability, T/C is 64.8%.

What about the viability, T/C [18] of the same compound?
The viability, T/C was 28.7%.

What about the viability, T/C [19] of the same compound?
Its viability, T/C is 106%.

What about the viability, T/C [20] of the same compound?
Its viability, T/C is 104%.

What about the viability, T/C [21] of the same compound?
The viability, T/C was 109%.

And the viability, T/C [22]?
Its viability, T/C is 108%.

What about the viability, T/C [23] of the same compound?
Its viability, T/C is 72.6%.

And the viability, T/C [24]?
Its viability, T/C is 36.5%.

What about the viability, T/C [25] of the same compound?
Its viability, T/C is 98.3%.

What about the viability, T/C [26] of the same compound?
Its viability, T/C is 105%.

And the viability, T/C [27]?
Its viability, T/C is 95.7%.

And the viability, T/C [28]?
Its viability, T/C is 87%.

And the viability, T/C [29]?
Its viability, T/C is 60.2%.

And the viability, T/C [30]?
Its viability, T/C is 30.3%.

And the viability, T/C [31]?
The viability, T/C was 86.7%.

And the viability, T/C [32]?
Its viability, T/C is 84%.

What about the viability, T/C [33] of the same compound?
The viability, T/C was 89.6%.

What about the viability, T/C [34] of the same compound?
Its viability, T/C is 86.2%.

What about the viability, T/C [35] of the same compound?
The viability, T/C was 51.8%.

What about the viability, T/C [36] of the same compound?
The viability, T/C was 30.1%.

With `C#Cc1c(F)ccc2cc(O)cc(-c3ncc4c(N5CC6CCC(C5)N6)nc(OCC56CCCN5CC(F)C6)nc4c3F)c12` (centres undefined) + CN(C)c1ccc(Nc2c3ccc(NC(=O)CCN4CCCC4)cc3nc3cc(NC(=O)CCN4CCCC4)ccc23)cc1 as the compound, how does the IC50 (second compound 0.0316 µM) read?
Its IC50 is 0.0417 µM.

And the IC50 (second compound 0.1 µM)?
Its IC50 is 0.0523 µM.

What about the IC50 (second compound 0.316 µM) of the same compound?
The IC50 was 0.0318 µM.

What about the IC50 (second compound 1 µM) of the same compound?
The IC50 was under 0.0316 µM.

What about the IC50 (second compound 3.16 µM) of the same compound?
The IC50 was 0.0397 µM.

And the IC50 (second compound 10 µM)?
Its IC50 is under 0.0316 µM.

And the viability, T/C [1]?
Its viability, T/C is 54.1%.

What about the viability, T/C [2] of the same compound?
The viability, T/C was 37.5%.

And the viability, T/C [3]?
The viability, T/C was 28.1%.

And the viability, T/C [4]?
The viability, T/C was 20.2%.

What about the viability, T/C [5] of the same compound?
The viability, T/C was 20.2%.

And the viability, T/C [6]?
Its viability, T/C is 15.8%.

What about the viability, T/C [7] of the same compound?
The viability, T/C was 56.4%.

And the viability, T/C [8]?
The viability, T/C was 41.9%.

What about the viability, T/C [9] of the same compound?
Its viability, T/C is 24.3%.

And the viability, T/C [10]?
Its viability, T/C is 22.4%.

What about the viability, T/C [11] of the same compound?
Its viability, T/C is 21.2%.

And the viability, T/C [12]?
The viability, T/C was 16.9%.

What about the viability, T/C [13] of the same compound?
Its viability, T/C is 50%.

What about the viability, T/C [14] of the same compound?
The viability, T/C was 35.7%.

And the viability, T/C [15]?
The viability, T/C was 23%.

And the viability, T/C [16]?
The viability, T/C was 21.4%.

And the viability, T/C [17]?
Its viability, T/C is 17.4%.

What about the viability, T/C [18] of the same compound?
Its viability, T/C is 15.7%.

And the viability, T/C [19]?
Its viability, T/C is 49.4%.

And the viability, T/C [20]?
The viability, T/C was 33.1%.

What about the viability, T/C [21] of the same compound?
Its viability, T/C is 26.9%.

And the viability, T/C [22]?
Its viability, T/C is 16.9%.

What about the viability, T/C [23] of the same compound?
Its viability, T/C is 18.6%.

What about the viability, T/C [24] of the same compound?
Its viability, T/C is 18%.

What about the viability, T/C [25] of the same compound?
The viability, T/C was 53.8%.

And the viability, T/C [26]?
Its viability, T/C is 36%.

And the viability, T/C [27]?
Its viability, T/C is 26.9%.

What about the viability, T/C [28] of the same compound?
Its viability, T/C is 23%.

What about the viability, T/C [29] of the same compound?
Its viability, T/C is 21.3%.

And the viability, T/C [30]?
Its viability, T/C is 12.1%.

What about the viability, T/C [31] of the same compound?
The viability, T/C was 44.9%.

What about the viability, T/C [32] of the same compound?
Its viability, T/C is 26.7%.

And the viability, T/C [33]?
The viability, T/C was 17.5%.

And the viability, T/C [34]?
The viability, T/C was 13.4%.

And the viability, T/C [35]?
Its viability, T/C is 3.6%.

What about the viability, T/C [36] of the same compound?
Its viability, T/C is 0.44%.
